Numbers after ± are expanded uncertainties.
Assay: xn = mol fraction of the nth substance listed
Conditions: Liquid, Falling or rolling sphere viscometry

Cc1ccc(C)cc1 [1,4-dimethylbenzene] + CC(=O)O
viscosity [mPa·s]
Conditions | x1 = 0.1001 | x1 = 0.1997 | x1 = 0.3001 | x1 = 0.3997 | x1 = 0.5 | x1 = 0.6002 | x1 = 0.6988 | x1 = 0.7994 | x1 = 0.8994
373.15 K, 3200 kPa | – | – | – | – | 0.315 ± 0.003 | 0.309 ± 0.003 | 0.307 ± 0.003 | 0.305 ± 0.003 | 0.308 ± 0.003
393.15 K, 800 kPa | 0.34 ± 0.004 | 0.294 ± 0.003 | 0.269 ± 0.003 | 0.252 ± 0.003 | 0.253 ± 0.003 | 0.249 ± 0.003 | 0.256 ± 0.003 | 0.254 ± 0.003 | 0.254 ± 0.003
393.15 K, 1600 kPa | 0.345 ± 0.004 | 0.3 ± 0.003 | 0.275 ± 0.003 | 0.258 ± 0.003 | 0.258 ± 0.003 | 0.254 ± 0.003 | 0.261 ± 0.003 | 0.258 ± 0.003 | 0.259 ± 0.003
393.15 K, 2400 kPa | 0.352 ± 0.004 | 0.306 ± 0.003 | 0.281 ± 0.003 | 0.263 ± 0.003 | 0.264 ± 0.003 | 0.26 ± 0.003 | 0.266 ± 0.003 | 0.264 ± 0.003 | 0.265 ± 0.003
393.15 K, 3200 kPa | 0.358 ± 0.004 | 0.313 ± 0.003 | 0.287 ± 0.003 | 0.269 ± 0.003 | 0.27 ± 0.003 | 0.265 ± 0.003 | 0.272 ± 0.003 | 0.27 ± 0.003 | 0.27 ± 0.003
413.15 K, 800 kPa | 0.294 ± 0.003 | 0.255 ± 0.003 | 0.237 ± 0.003 | 0.221 ± 0.002 | 0.217 ± 0.002 | 0.218 ± 0.002 | 0.222 ± 0.002 | 0.219 ± 0.002 | 0.22 ± 0.002
413.15 K, 1600 kPa | 0.3 ± 0.003 | 0.26 ± 0.003 | 0.243 ± 0.003 | 0.227 ± 0.002 | 0.217 ± 0.002 | 0.223 ± 0.002 | 0.227 ± 0.002 | 0.225 ± 0.002 | 0.225 ± 0.002
413.15 K, 2400 kPa | 0.307 ± 0.003 | 0.265 ± 0.003 | 0.249 ± 0.003 | 0.233 ± 0.003 | 0.228 ± 0.002 | 0.229 ± 0.002 | 0.232 ± 0.003 | 0.23 ± 0.002 | 0.231 ± 0.002
413.15 K, 3200 kPa | 0.313 ± 0.003 | 0.271 ± 0.003 | 0.255 ± 0.003 | 0.239 ± 0.003 | 0.233 ± 0.003 | 0.234 ± 0.003 | 0.237 ± 0.003 | 0.235 ± 0.003 | 0.236 ± 0.003
433.15 K, 800 kPa | – | 0.223 ± 0.002 | 0.208 ± 0.002 | 0.196 ± 0.002 | 0.195 ± 0.002 | 0.194 ± 0.002 | 0.194 ± 0.002 | 0.191 ± 0.002 | 0.194 ± 0.002
433.15 K, 1600 kPa | 0.26 ± 0.003 | 0.228 ± 0.002 | 0.213 ± 0.002 | 0.202 ± 0.002 | 0.201 ± 0.002 | 0.199 ± 0.002 | 0.199 ± 0.002 | 0.197 ± 0.002 | 0.199 ± 0.002
433.15 K, 2400 kPa | 0.267 ± 0.003 | 0.233 ± 0.003 | 0.219 ± 0.002 | 0.208 ± 0.002 | 0.206 ± 0.002 | 0.205 ± 0.002 | 0.204 ± 0.002 | 0.202 ± 0.002 | 0.204 ± 0.002
433.15 K, 3200 kPa | 0.273 ± 0.003 | 0.239 ± 0.003 | 0.226 ± 0.002 | 0.213 ± 0.002 | 0.212 ± 0.002 | 0.21 ± 0.002 | 0.209 ± 0.002 | 0.208 ± 0.002 | 0.209 ± 0.002
453.15 K, 800 kPa | 0.221 ± 0.002 | 0.196 ± 0.002 | 0.181 ± 0.002 | 0.177 ± 0.002 | 0.174 ± 0.002 | 0.173 ± 0.002 | 0.173 ± 0.002 | 0.17 ± 0.002 | 0.17 ± 0.002
453.15 K, 1600 kPa | 0.227 ± 0.002 | 0.201 ± 0.002 | 0.186 ± 0.002 | 0.183 ± 0.002 | 0.18 ± 0.002 | 0.179 ± 0.002 | 0.178 ± 0.002 | 0.176 ± 0.002 | 0.175 ± 0.002
453.15 K, 2400 kPa | 0.233 ± 0.003 | 0.206 ± 0.002 | 0.192 ± 0.002 | 0.188 ± 0.002 | 0.185 ± 0.002 | 0.184 ± 0.002 | 0.183 ± 0.002 | 0.181 ± 0.002 | 0.18 ± 0.002
453.15 K, 3200 kPa | 0.24 ± 0.003 | 0.211 ± 0.002 | 0.198 ± 0.002 | 0.194 ± 0.002 | 0.191 ± 0.002 | 0.189 ± 0.002 | 0.188 ± 0.002 | 0.187 ± 0.002 | 0.184 ± 0.002
473.15 K, 1600 kPa | 0.19 ± 0.002 | 0.17 ± 0.002 | 0.162 ± 0.002 | 0.162 ± 0.002 | 0.161 ± 0.002 | 0.16 ± 0.002 | 0.16 ± 0.002 | 0.157 ± 0.002 | 0.159 ± 0.002
473.15 K, 2400 kPa | 0.196 ± 0.002 | 0.175 ± 0.002 | 0.168 ± 0.002 | 0.167 ± 0.002 | 0.166 ± 0.002 | 0.165 ± 0.002 | 0.164 ± 0.002 | 0.162 ± 0.002 | 0.164 ± 0.002
473.15 K, 3200 kPa | 0.202 ± 0.002 | 0.181 ± 0.002 | 0.173 ± 0.002 | 0.173 ± 0.002 | 0.171 ± 0.002 | 0.17 ± 0.002 | 0.169 ± 0.002 | 0.168 ± 0.002 | 0.168 ± 0.002
